From patent publication US20080102130A1, “DRY GRANULATED PHARMACEUTICAL COMPOSITIONS AND METHODS FOR PRODUCING SAME” (Janssen Pharmaceutica NV, priority 2006, published 2008)

Assay: Particle size distribution of the drug substance
Format: physicochemical
Text: Tapentadol is predominantly rectangular or rod-shaped crystalline powder. […] The D10 can be as low as 5 microns while the D99 can be as high as 500 microns. Although, the particle size distribution of the drug substance is controlled during crystallization, milling or micronizing the API to less than a micron size would not affect processability, as described herein, or the attribute of the drug product. Other APIs with similar properties such as Tramadol are expected to have a similar behavior.

CC[C@@H](c1cccc(O)c1)[C@@H](C)CN(C)C [Tapentadol]
Particle size distribution D10: ≥ 5 microns
Particle size distribution D99: ≤ 500 microns
